In patent US20040074621A1, “Method for reducing slime production and mixture making the same” (Yuen Foong Yu Paper MFG Co., Ltd., priority 2002, published 2004):

What was measured:
[1] = tested on: culture isolated from the slime; assay: The effect of the antagonistic and the dispersing agent on the formation of the deposit; type: cell-based; conditions: after 7 days
Description: Cultures which are isolated from the slime are cultivated in a NB cultivation liquid for 21-24 hours. Then, 1 mL culture liquids of the isolated cultures are centrifuged in 15000 rpm for 1 min and the supernatants thereof are removed. All the isolated cultures are re-suspended by adding 1 mL sterile water, and then each re-suspended culture is inoculated into a flask which already contains sterile white water 100 mL and 3 g LBKP pulp. Later, different dispersing agents are added into different flasks of each kind of culture to obtain different mixtures. The mixtures are cultivated in an incubate shaker at 40° C. 70 rpm. After being mixture cultivated for 3 hours, 3 mL antagonistic C5 (Streptomyces bikiniensis) which has been amounted to 10^7/mL after being cultivated for 24 hours is added thereinto to obtain another mixture. The mixture are cultivated in the incubate shaker again at 40° C., 70 rpm. After 7 days, the production of the deposit is recorded. The whole experiment is separated into six groups. […] There are four experimental group: 3: Only incubate the culture isolated from the slime without incubating the antagonistic C5; 4: Incubate both the culture isolated from the slime and the antagonistic C5; 5: Incubate the culture isolated from the slime and the dispersing agent; and 6: Incubate the culture isolated from the slime, the dispersing agent, and the antagonistic C5. The groups described above are double checked and all experiments are repeated at least once. Deposit % is calculated by the formula as follows: [formula]

[2] = tested on: culture isolated from the slime; assay: The track experiment of periodically adding the antagonistic; type: cell-based
Description: Cultures which are isolated from the slime are cultivated in a NB cultivation liquid for 21-24 hours. Then, 1 mL culture liquids of the isolated cultures are centrifuged in 15000 rpm for 1 min and the supernatants thereof are removed. All the isolated cultures are re-suspended by adding 1 mL sterile water, and then each re-suspended culture is inoculated into a flask which already contains sterile white water 100 mL and 3 g LBKP pulp. Later, different dispersing agents are added into different flasks of each kind of culture to obtain different mixtures. The mixtures are cultivated in an incubate shaker at 40° C. 70 rpm. After being mixture cultivated for 3 hours, 3 mL antagonistic C5 (Streptomyces bikiniensis) which has been amounted to 10^7/L after being cultivated for 24 hours is added thereinto to obtain another mixture. The mixture are cultivated in the incubate shaker again at 40° C. 70 rpm. […] Then, the final deposit amount after another 7 days (total 14 days) is also recorded. The whole experiment is separated into four groups. […] There are two experimental group: 3: Only incubate the culture isolated from the slime without incubating the antagonistic C5; and 4: Incubate both the culture isolated from the slime and the antagonistic C5. The groups described above are double checked and all experiments are repeated at least once. Deposit % is calculated by the formula as follows: [formula]

[3] = isolated culture in sterile white water 100 mL + 3 g LBKP pulp, 40° C. 70 rpm, culture isolated from slime alone = 100%
[4] = contrast group: only antagonistic C5, without the culture isolated from the slime

Row | Substance | Deposit (%) of the slime [1, 3] | Deposit (%) of the slime [1, 4] | Deposit % (Day 7) [2, 4] | Deposit % (Day 14) [2, 4] | Deposit % (Day 14) ([2]; culture isolated from slime + antagonistic C5, antagonistic C5 re-added at Day 7) | Deposit % (Day 14) ([2]; culture isolated from slime + antagonistic C5 added once, not re-added, culture alone = 100%) | Deposit % (Day 7) ([2]; culture isolated from slime + antagonistic C5 added once, culture alone = 100%)
1 | Di-alkyl sulfosuccinate [dispersing agent S100] | 53% | – | – | – | – | – | –
2 | Streptomyces bikiniensis [Antagonistic C5] | 53.0% | 24.7% | 31.0% | 35.0% | 28% | 87% | 29%
